The values below come from ChEMBL document CHEMBL4393710, “Discovery of Dioxino[2,3-f]quinazoline derivative VEGFR-2 inhibitors exerting significant antipro-liferative activity in HUVECs and mice” (Eur J Med Chem, 2019).

The subject of one data set is L02. Put plainly: Antiproliferative activity against human LO2 cells incubated for 72 hrs by CCK8 assay. To be noted: L02, 72 h. Background: Tetrazolium assays rely on reduction of a dye to a coloured formazan, in cell work by metabolically active cells.
For data set [1], the target named is Vascular endothelial growth factor receptor 2 (Homo sapiens, UniProt P35968). The experiment in a line: Inhibition of human N-terminal GST-tagged VEGFR2 cytoplasmic domain (790 to 1356 residues) expressed in baculovirus expression system using Ulight-JAK-1(Tyr1023) peptide as substrate preincubated for 30 mins followed by substrate addition and measured after 60 mins by spectrometric method.

A further data set concerns HEK293. The experiment in a line: Antiproliferative activity against HEK293 cells incubated for 72 hrs by CCK8 assay. To be noted: Homo sapiens, HEK293, 72 h.
The test system of the next data set is HUVEC. Put plainly: Inhibition of VEGF-induced cell proliferation of HUVEC incubated for 72 hrs by CCK8 assay. To be noted: Homo sapiens.
The nature of data set [2]: Toxicity in nude mouse xenografted with human SMMC7721 cells assessed as change in body weight at 60 mg/kg, po administered daily for 6 days and measured every 3 days. Format: organism-based. To be noted: in vivo. On the technique in general: A xenograft is tissue or cells of one species grown in another, often human tumour cells in immunodeficient mice.
Data set [3] deals with SMMC-7721. The experiment in a line: Antitumor activity against human SMMC7721 cells xenografted in nude mouse assessed as tumor growth inhibition at 60 mg/kg, po administered daily for 6 days and measured on day 9 relative to control. Format: functional. To be noted: SMMC-7721, po, read-out: TGI.
In data set [4] the test system is SMMC-7721. The experiment in a line: Antitumor activity against human SMMC7721 cells xenografted in nude mouse assessed as tumor volume at 60 mg/kg, po administered daily for 6 days and measured on day 6 (reference value: 1990.2 +/- 179.2 mm3). Format: functional.
Data set [5] deals with SMMC-7721. Put plainly: Antitumor activity against human SMMC7721 cells xenografted in nude mouse assessed as tumor volume at 60 mg/kg, po administered daily for 6 days and measured on day 9 (reference value: 3005.8 +/- 225.3 mm3). Format: functional.
A short description of data set [6]: Toxicity in nude mouse xenografted with human SMMC7721 cells assessed as side effect at 60 mg/kg, po administered daily for 6 days. To be noted: in vivo, 144 h. Format: organism-based.
The subject of data set [7] is SMMC-7721. Put plainly: Antiproliferative activity against human SMMC7721 cells incubated for 72 hrs by CCK8 assay. Conditions: SMMC-7721, 72 h. Format: functional, cell-based.
A short description of data set [8]: Toxicity in nude mouse xenografted with human SMMC7721 cells assessed as mortality at 60 mg/kg, po administered daily for 6 days. Format: organism-based. Conditions: in vivo, 144 h.
Data set [9] has as its system SMMC-7721. The experiment in a line: Antitumor activity against human SMMC7721 cells xenografted in nude mouse assessed as tumor growth inhibition at 60 mg/kg, po administered daily for 6 days and measured on day 6 relative to control. Format: functional. Conditions: SMMC-7721, po, 144 h, read-out: TGI.

Chain of Vascular endothelial growth factor receptor 2 (P35968 whole entry, the tested form may be a part): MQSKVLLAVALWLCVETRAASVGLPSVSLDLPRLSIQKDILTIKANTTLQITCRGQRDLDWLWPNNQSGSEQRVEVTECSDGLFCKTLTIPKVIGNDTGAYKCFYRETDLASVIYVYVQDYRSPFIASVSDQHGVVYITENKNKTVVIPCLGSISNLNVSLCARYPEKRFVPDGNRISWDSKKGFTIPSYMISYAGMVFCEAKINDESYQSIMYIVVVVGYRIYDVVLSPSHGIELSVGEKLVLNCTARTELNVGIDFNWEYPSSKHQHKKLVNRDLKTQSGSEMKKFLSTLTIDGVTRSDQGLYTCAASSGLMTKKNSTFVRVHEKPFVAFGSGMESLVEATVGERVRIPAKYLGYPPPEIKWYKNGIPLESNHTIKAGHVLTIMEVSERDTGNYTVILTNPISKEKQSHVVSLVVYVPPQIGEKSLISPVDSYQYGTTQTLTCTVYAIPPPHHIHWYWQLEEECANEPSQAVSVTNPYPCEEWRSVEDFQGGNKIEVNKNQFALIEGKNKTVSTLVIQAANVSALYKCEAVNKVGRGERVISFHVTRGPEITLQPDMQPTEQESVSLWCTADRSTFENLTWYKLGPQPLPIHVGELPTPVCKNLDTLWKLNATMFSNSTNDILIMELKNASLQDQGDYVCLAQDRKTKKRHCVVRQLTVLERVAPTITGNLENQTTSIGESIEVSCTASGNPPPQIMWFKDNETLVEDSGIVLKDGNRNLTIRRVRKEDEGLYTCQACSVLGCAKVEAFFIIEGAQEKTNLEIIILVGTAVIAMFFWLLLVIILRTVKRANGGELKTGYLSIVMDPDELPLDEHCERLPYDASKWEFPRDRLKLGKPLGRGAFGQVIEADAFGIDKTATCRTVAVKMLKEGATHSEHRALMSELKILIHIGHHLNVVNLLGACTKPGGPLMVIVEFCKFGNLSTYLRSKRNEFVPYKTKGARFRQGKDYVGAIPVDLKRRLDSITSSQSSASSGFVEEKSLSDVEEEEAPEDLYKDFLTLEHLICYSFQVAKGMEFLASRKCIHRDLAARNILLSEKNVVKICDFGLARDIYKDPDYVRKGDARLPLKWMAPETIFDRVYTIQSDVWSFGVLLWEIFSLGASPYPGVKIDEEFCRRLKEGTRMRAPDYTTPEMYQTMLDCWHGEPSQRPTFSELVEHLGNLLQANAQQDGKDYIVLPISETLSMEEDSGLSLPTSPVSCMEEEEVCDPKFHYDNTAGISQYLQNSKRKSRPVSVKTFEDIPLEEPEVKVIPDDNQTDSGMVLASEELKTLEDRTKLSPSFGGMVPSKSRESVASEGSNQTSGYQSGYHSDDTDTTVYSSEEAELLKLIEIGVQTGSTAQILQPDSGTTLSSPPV

With `O=C(Nc1ccc(Oc2ncnc3cc(OCCCN4CCOCC4)c4c(c23)OCCO4)cc1)Nc1cc(C(F)(F)F)ccc1F`, the IC50 in the data set on L02 was determined as 1010 nM; in data set [1], 1.5 nM; in the data set with HEK293, 994 nM; in the data set with HUVEC, 2.3 nM.
`O=C(Nc1cc(C(F)(F)F)ccc1F)Nc1ccc(Oc2ncnc3cc(OCCCN4CCOCC4)c4c(c23)OCCO4)cc1Cl`: the results for the IC50 in the data set on L02, in the data set on HEK293 and in the data set on HUVEC were 5980 nM, 5180 nM and 4 nM, respectively.
With `O=C(Nc1ccc(Oc2ncnc3cc(OCCCN4CCOCC4)c4c(c23)OCCO4)c(F)c1)Nc1cc(C(F)(F)F)ccc1F`, the IC50 with L02 amounted to 801 nM; in data set [1] it was 3.4 nM; with HEK293, 700 nM; in the data set with HUVEC, 1.5 nM.
Regarding `COc1cc2ncnc(Oc3ccc(NC(=O)Nc4ccc(Cl)c(C(F)(F)F)c4)cc3)c2c2c1OCCO2`, the Activity entry in [2] is recorded as “Toxic”; in the data set with SMMC-7721 [4] it was 14 mm3; with SMMC-7721 [5], 63.3 mm3; in data set [6], “Non-Toxic”; in data set [8] it was “Non-Toxic”. Further, the IC50 in the data set on L02 turned out to be 3860 nM; in data set [1], 2.4 nM; with HEK293, 7540 nM; in the data set with HUVEC it was 1.2 nM; in the data set on SMMC-7721 [7], 376 nM. The inhibition in vivo at 60 mg/kg in the data set with SMMC-7721 [3] is 118%; with SMMC-7721 [9] it was 133%.
For the compound `COCCOc1cc2ncnc(Oc3ccc(NC(=O)Nc4cc(C(F)(F)F)ccc4F)cc3)c2c2c1OCCO2`, the IC50 in the data set with L02 is 1160 nM; in [1] it was 1.7 nM; with HEK293, 894 nM; with HUVEC it was 1.1 nM.
With `O=C(Nc1ccc(Oc2ncnc3cc(OCCCN4CCOCC4)c4c(c23)OCCO4)cc1F)Nc1cc(C(F)(F)F)ccc1F`, the IC50 was 1510 nM with L02, 1160 nM in the data set on HEK293 and 4.7 nM with HUVEC.
`COc1cc2nccc(Oc3ccc(NC(=O)NC4CC4)c(Cl)c3)c2cc1C(N)=O` [LENVATINIB] showed an IC50 in the data set with HUVEC of 3 nM.
As to `COc1cc2ncnc(Oc3ccc(NC(=O)Nc4cc(C(F)(F)F)ccc4F)cc3)c2c2c1OCCO2`, the IC50 in the data set with L02 was 2190 nM; in data set [1], 1.5 nM; with HEK293 it was 2880 nM; in the data set with HUVEC it was 1.7 nM.
With `CC(C)Oc1cc2ncnc(Oc3ccc(NC(=O)Nc4cc(C(F)(F)F)ccc4F)cc3)c2c2c1OCCO2`, the IC50 with L02 is 5180 nM; in the data set with HEK293 it was 3560 nM; in the data set with HUVEC, 4.2 nM.
The corresponding values for `COc1cccc(NC(=O)Nc2ccc(Oc3ncnc4cc(OC)c5c(c34)OCCO5)cc2)c1` are 34300 nM, more than 25000 nM and 3 nM.

What is called IC50 is the concentration that inhibits the measured activity by half.
